Test results reported in ChEMBL document CHEMBL1201862, “PubChem BioAssay data set” (2004).
Active and inactive are the calls of the source.

Tests used:
[1] = target: T1, Ubiquitin carboxyl-terminal hydrolase BAP1 (Homo sapiens, UniProt Q92560); assay: BAP1 deubiquitinase inhibitors, dose response, biochemical (AID 714); type: functional
T1 sequence (Q92560 whole entry): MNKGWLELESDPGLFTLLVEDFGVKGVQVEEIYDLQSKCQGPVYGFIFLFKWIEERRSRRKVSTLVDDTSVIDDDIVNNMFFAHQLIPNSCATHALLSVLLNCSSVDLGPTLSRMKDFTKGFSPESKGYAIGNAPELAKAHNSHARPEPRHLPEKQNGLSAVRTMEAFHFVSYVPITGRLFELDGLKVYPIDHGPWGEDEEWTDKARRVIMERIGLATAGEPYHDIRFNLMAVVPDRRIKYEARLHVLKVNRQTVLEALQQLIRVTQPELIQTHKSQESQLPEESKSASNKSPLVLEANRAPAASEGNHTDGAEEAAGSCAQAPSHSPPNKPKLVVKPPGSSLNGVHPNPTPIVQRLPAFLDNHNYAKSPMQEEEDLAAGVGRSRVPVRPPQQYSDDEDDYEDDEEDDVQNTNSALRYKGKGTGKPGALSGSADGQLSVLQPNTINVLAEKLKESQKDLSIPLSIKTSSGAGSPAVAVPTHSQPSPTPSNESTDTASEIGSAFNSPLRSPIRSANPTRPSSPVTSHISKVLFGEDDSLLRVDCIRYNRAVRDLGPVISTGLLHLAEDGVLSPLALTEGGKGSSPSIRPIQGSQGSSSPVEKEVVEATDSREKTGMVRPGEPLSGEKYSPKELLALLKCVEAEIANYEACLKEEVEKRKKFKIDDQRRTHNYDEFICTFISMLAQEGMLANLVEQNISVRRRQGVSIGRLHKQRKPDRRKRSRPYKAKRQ

Protein Tat = target: T2, Protein Tat (Human immunodeficiency virus type 1 group M subtype B (isolate HXB2)(HIV-1), UniProt P04608); type: functional;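 also: tat binding to TAR RNA read out by fluorescence polarization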
T2 sequence (P04608 whole entry): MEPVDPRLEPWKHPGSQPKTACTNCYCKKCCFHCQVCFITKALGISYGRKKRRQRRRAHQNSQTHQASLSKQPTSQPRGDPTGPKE

[2] = THP-1 cell cytotoxicity, dose response, cytotoxicity control for Vif-APOBEC3G degradation inhibitor project, THP-1 cells (AID 1117359); type: functional; settings: Human immunodeficiency virus 1, THP-1
[3] = target: Voltage-dependent T-type calcium channel subunit alpha-1H (Homo sapiens, UniProt O95180); type: functional;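 also: channel activity triggered by adding a high calcium stimulation buffer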
Bcl-2-like protein 10 = target: T3, Bcl-2-like protein 10 (Homo sapiens, UniProt Q9HD36); assay: displacers of TR3 peptide from Bcl-B, primary screen, selectivity assay for Bfl-1 inhibitor project, biochemical, fluorescence polarization, FITC-TR3 peptide (AID 748);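 also: fluorescence polarization from a fluorescein-labelled TR3 peptide binding purified Bcl-B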
T3 sequence (Q9HD36 whole entry): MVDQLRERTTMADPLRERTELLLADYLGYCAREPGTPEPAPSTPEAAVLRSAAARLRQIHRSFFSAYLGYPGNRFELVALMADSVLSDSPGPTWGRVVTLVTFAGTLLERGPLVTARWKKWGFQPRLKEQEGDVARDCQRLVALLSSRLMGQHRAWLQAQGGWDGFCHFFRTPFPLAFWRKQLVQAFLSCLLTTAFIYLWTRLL

Cytochrome P450 1A2 = target: T4, Cytochrome P450 1A2 (Homo sapiens, UniProt P05177);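 also: PubChem cytochrome P450 panel assay, CYP1A2 panel member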
T4 sequence (P05177 whole entry): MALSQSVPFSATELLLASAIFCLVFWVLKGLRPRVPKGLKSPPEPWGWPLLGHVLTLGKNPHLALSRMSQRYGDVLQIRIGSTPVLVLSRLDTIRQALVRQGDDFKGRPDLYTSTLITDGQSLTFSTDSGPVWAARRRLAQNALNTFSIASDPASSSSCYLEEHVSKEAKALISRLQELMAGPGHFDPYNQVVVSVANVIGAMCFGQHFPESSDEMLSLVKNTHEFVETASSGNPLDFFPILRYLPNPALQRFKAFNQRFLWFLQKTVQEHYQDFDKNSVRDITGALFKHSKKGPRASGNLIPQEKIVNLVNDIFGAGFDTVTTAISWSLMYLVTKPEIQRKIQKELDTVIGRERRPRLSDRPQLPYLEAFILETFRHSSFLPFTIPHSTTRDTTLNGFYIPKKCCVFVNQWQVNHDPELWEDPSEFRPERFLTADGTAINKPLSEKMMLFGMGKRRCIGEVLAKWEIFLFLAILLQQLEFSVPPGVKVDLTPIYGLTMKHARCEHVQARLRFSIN

[4] = Luminescence Cell-Based Dose Confirmation HTS to Identify Inhibitors of Platelet Dense Granule Release. [Related pubchem assays: 1663 (Primary HTS), 1678 (Summary of Project)]; type: functional
[5] = A cytotoxicity screen of small molecule inhibitors of the PhoP region in Salmonella typhi identified in the primary screen. [Related pubchem assays: 1850, 1864, 1985 ]; type: functional
[6] = target: Luciferin 4-monooxygenase (Photinus pyralis, UniProt P08659); assay: firefly luciferase enzyme inhibitors, dose response, biochemical, luminescence (AID 1891)
Mucolipin-3 = target: T5, Mucolipin-3 (Homo sapiens, UniProt Q8TDD5); assay: Dose response cell-based high-throughput screening assay for agonists of the transient receptor potential channel ML3 (TRPML3). [Related pubchem assays: 1526, 1424, 1448 ]; type: functional
T5 sequence (Q8TDD5 whole entry): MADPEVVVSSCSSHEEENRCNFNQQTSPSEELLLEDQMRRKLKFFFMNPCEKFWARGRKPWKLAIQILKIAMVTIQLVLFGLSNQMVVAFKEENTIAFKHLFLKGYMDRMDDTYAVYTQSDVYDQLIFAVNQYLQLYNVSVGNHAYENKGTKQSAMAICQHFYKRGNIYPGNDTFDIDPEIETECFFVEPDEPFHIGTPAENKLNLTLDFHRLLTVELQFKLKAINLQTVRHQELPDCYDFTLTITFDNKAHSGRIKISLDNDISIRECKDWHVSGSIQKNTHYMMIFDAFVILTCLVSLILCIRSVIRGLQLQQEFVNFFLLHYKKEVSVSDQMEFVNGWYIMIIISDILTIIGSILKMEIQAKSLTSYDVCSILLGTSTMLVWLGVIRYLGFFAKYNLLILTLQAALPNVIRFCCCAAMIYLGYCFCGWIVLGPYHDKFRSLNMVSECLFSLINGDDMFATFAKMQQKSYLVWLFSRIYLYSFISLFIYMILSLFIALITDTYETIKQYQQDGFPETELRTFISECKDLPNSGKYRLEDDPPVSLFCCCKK

Ion channel NompC = Ion channel NompC (Danio rerio, UniProt Q7T1G6); assay: Fluorescence counterscreen assay for TRPML3 agonists: dose response cell-based high-throughput screening assay to identify agonists of the transient receptor potential channel N1 (TRPN1). [Related pubchem assays: 1526, 1424, 1448 ]; type: functional
[7] = target: T6, Heat shock factor protein 1 (Mus musculus, UniProt P38532); assay: inhibition of MG132-induced HSE-luciferase signal, confirmation, cell-based, NIH3T3, luminescence, dose retest (AID 2382); type: functional;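 also: NIH3T3 fibroblasts with HSF1-driven luciferase reporter stressed by proteasome inhibitor MG132; luminescence from HSF1-driven luciferase expression after 8 hours of MG132 stress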
T6 sequence (P38532 whole entry): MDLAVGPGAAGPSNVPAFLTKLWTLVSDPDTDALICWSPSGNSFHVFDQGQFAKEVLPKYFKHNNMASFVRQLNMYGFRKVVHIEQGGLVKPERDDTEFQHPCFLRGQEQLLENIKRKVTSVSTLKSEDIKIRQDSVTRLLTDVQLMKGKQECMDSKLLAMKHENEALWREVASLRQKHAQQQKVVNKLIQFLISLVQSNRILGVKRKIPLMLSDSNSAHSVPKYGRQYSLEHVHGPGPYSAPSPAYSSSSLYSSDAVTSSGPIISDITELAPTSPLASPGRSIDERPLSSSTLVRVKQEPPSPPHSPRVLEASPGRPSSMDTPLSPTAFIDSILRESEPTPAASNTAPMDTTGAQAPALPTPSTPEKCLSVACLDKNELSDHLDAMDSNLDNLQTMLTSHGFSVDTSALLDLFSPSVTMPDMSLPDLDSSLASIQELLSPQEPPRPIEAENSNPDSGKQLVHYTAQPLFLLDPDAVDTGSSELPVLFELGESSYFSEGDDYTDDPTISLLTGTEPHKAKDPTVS

[8] = target: T7, Calpain-2 catalytic subunit (Sus scrofa, UniProt P43367); assay: pig calpain II inhibitor potency, dose response, biochemical, fluorogenic peptide substrate (AID 1420); type: functional
T7 sequence (P43367 whole entry): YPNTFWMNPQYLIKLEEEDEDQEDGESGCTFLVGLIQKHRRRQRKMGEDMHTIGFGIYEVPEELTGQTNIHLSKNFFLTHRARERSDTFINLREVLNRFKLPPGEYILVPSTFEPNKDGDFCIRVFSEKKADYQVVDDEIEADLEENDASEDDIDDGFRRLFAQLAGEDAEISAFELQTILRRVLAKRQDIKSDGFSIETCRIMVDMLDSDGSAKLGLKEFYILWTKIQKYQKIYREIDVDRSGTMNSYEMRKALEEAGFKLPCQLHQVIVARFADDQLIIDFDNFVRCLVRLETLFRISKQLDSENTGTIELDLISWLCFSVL

[9] = target: Protein-tyrosine kinase 2-beta (Homo sapiens, UniProt Q14289);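 also: potency of inhibitors of PYK2 kinase phosphorylation of poly-GT substrate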
Estrogen receptor beta [10] = target: T8, Estrogen receptor beta (Homo sapiens, UniProt Q92731); assay: ERβ–SRC-3 coactivator interaction inhibitors, confirmation, orthogonal assay, biochemical, ELISA, streptavidin-HRP readout (AID 1060)
Estrogen receptor beta [11] = target: T8, Estrogen receptor beta
Cytochrome P450 2C19 = Cytochrome P450 2C19 (Homo sapiens, UniProt P33261); assay: Cytochrome panel assay with activity outcomes. Panel member name: p450-cyp2c19 Compounds with AC50 equal or less than 10 uM are considered active; type: functional
Cytochrome P450 3A4 = Cytochrome P450 3A4 (Homo sapiens, UniProt P08684);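 also: CYP3A4 tested as one member of a cytochrome P450 panel screen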
Cytochrome P450 2C9 = Cytochrome P450 2C9 (Homo sapiens, UniProt P11712)
[12] = inhibitors of SNCA 5'UTR-driven translation, confirmation, luminescence, H4 neuroglioblastoma cells, dose confirmation (AID 2454); type: functional, cell-based;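 also: H4 neuroglioblastoma cells carrying an alpha-synuclein 5'UTR luciferase reporter; potency for inhibition of the luciferase signal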
[13] = luciferase reporter signal reduction – luminescence, H4-C neuroglioblastoma cells, dose response (AID 2458); type: functional, cell-based;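 also: H4 neuroglioblastoma cells stably carrying a luciferase reporter gene fusion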
cells = type: functional, cell-based
[14] = inhibitors of firefly luciferase expression or activity, dose response, H4 neuroglioma cells, luminescence (AID 1990); type: functional, cell-based
[15] = Luminescence Cell-Based Dose Response HTS to Identify Inhibitors of 5'UTR Stem-Loop Driven Prion Protein mRNA Translation in H4 Neuroglioblastoma Cells. [Related pubchem assays: 1827 (Project Summary), 1813 (Primary HTS)]; type: functional

Sequence of Luciferin 4-monooxygenase (P08659 whole entry): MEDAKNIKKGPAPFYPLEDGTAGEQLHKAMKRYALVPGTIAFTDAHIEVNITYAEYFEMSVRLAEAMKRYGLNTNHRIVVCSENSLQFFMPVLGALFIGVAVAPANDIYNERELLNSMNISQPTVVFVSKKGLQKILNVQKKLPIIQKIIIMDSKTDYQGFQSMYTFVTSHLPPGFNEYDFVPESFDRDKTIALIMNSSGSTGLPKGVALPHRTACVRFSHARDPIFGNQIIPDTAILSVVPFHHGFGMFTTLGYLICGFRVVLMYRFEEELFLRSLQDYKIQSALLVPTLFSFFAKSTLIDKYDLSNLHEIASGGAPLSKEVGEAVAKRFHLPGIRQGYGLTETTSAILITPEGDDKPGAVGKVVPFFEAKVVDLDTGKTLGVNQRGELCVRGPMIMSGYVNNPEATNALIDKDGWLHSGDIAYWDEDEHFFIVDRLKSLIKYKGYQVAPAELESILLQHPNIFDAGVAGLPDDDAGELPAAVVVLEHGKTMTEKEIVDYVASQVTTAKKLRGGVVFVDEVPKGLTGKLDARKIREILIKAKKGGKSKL
Sequence of Protein-tyrosine kinase 2-beta (Q14289 whole entry): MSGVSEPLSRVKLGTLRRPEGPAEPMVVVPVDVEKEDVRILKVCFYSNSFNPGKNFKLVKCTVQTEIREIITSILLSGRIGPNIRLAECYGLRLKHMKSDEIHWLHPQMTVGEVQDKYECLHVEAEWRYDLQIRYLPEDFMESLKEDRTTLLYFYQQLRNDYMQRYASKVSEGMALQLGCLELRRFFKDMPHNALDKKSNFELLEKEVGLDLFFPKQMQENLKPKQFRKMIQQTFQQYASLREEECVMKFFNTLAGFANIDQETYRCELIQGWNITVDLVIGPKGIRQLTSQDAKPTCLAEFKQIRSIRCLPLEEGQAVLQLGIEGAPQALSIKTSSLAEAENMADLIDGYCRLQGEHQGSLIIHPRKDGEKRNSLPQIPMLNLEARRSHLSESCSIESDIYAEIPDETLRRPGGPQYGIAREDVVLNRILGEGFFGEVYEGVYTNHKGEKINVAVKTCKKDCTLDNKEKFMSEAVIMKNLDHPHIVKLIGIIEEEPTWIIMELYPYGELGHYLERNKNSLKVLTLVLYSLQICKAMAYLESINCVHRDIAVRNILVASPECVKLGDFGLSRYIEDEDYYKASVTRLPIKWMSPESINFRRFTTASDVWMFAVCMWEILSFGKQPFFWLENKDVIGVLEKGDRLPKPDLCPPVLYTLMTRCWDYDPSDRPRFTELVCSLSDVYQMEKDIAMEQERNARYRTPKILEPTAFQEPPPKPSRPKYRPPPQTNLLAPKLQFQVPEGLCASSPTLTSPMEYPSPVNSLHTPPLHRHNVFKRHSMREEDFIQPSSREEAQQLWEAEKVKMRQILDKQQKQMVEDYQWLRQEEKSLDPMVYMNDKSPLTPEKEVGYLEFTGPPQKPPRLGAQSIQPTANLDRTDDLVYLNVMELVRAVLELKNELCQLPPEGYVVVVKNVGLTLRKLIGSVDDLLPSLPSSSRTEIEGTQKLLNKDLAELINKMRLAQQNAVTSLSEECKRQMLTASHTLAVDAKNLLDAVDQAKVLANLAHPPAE
Sequence of Voltage-dependent T-type calcium channel subunit alpha-1H (O95180 whole entry): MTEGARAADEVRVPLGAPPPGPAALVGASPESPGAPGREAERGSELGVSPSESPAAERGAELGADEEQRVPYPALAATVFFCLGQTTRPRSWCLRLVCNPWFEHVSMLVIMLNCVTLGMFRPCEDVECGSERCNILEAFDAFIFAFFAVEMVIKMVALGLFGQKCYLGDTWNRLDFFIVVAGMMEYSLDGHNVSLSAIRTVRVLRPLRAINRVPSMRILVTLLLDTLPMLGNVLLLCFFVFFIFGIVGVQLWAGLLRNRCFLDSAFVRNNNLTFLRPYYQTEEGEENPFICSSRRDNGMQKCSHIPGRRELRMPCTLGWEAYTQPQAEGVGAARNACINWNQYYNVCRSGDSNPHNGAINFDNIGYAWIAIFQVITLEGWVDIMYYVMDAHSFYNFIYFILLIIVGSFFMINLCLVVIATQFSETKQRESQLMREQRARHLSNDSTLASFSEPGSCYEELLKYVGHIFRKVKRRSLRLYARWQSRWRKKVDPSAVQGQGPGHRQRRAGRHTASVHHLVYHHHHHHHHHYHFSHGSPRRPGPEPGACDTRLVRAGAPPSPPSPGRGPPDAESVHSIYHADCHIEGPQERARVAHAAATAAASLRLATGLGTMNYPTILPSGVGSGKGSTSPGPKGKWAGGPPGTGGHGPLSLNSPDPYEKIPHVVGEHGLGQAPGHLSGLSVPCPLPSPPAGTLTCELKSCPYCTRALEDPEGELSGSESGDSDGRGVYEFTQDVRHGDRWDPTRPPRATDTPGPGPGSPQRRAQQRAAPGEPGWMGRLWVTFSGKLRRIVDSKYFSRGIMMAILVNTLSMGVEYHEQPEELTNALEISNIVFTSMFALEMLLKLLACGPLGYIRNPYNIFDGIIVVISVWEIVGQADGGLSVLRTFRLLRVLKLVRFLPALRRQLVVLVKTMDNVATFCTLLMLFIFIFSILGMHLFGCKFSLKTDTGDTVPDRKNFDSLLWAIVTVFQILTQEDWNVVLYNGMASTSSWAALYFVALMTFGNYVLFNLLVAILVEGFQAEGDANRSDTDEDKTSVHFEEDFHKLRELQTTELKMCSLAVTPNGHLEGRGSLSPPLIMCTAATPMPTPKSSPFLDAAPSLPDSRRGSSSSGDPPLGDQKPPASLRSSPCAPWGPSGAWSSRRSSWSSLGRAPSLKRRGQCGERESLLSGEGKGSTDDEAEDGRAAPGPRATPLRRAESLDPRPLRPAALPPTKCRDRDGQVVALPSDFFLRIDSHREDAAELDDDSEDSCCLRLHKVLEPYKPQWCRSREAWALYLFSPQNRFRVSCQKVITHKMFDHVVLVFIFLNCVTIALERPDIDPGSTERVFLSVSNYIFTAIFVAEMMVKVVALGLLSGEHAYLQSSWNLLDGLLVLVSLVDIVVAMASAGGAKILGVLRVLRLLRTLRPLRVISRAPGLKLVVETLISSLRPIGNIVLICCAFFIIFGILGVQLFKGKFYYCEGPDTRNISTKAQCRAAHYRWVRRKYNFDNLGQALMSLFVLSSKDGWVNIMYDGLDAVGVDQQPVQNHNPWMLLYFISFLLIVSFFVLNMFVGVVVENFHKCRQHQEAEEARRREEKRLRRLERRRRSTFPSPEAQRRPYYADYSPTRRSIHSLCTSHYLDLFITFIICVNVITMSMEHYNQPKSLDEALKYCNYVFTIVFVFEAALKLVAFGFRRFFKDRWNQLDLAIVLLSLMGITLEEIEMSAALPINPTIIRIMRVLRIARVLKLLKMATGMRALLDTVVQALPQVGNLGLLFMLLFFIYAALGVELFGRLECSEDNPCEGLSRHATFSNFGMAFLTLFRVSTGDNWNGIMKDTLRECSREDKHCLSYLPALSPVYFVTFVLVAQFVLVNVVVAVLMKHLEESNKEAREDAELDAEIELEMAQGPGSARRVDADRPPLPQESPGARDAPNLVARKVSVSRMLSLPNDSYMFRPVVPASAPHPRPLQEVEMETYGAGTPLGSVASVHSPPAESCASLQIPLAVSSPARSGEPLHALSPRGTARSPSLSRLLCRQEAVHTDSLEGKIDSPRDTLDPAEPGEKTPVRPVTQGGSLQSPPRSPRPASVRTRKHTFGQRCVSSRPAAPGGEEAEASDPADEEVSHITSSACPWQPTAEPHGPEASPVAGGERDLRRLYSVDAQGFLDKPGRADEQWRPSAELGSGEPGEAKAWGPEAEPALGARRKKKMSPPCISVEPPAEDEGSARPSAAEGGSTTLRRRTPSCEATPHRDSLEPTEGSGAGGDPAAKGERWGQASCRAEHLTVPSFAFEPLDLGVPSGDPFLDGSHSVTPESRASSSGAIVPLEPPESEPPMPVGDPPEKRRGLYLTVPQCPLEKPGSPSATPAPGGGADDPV
T8 sequence (Q92731 whole entry): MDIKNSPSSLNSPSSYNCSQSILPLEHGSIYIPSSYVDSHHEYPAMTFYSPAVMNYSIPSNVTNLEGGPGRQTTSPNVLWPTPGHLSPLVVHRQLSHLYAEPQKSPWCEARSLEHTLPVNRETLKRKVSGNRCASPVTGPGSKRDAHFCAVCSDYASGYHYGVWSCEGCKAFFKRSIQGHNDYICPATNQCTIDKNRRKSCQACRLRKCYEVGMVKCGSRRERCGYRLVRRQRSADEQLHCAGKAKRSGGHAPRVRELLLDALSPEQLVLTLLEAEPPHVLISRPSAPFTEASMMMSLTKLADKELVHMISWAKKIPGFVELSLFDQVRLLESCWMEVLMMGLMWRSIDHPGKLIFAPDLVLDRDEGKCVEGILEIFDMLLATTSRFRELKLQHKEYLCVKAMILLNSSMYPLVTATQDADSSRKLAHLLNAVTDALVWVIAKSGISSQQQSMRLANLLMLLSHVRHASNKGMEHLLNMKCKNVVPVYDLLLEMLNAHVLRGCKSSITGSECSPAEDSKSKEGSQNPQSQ
Sequence of Cytochrome P450 2C9 (P11712 whole entry): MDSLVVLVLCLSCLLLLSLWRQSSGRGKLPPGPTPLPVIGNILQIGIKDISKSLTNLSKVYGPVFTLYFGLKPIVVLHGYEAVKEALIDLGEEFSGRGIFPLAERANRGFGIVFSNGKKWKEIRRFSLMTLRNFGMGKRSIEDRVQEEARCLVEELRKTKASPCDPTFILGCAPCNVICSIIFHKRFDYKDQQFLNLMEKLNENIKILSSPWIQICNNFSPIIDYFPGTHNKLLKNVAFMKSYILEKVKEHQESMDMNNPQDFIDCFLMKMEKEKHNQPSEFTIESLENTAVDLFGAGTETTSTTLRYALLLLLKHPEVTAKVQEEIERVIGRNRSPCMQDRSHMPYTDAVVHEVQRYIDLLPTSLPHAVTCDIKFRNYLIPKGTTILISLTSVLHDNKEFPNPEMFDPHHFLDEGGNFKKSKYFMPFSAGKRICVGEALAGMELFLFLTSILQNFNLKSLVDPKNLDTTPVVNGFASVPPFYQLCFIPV

CN(C)c1ccc(NC(=O)CSc2nc3ccccc3c(=O)n2C2CCCCC2)cc1
IC50 [1]: 30.2 µM (not active)
IC50 (Protein Tat): 47.4 µM (inconclusive)
CC50 [2]: > 40 µM (active)

COc1ccccc1N1CCN(CCCCOc2ccc(F)cc2)CC1
EC50 [3]: 7.52 µM (active)

Cc1nn2c(N)csc2nc1=O
IC50 (Bcl-2-like protein 10): > 12.5 µM (inactive)

O=C(Nc1ccc2c(c1)OCCO2)c1cc2sccc2n1Cc1ccccc1
AC50 (Cytochrome P450 1A2): 12.6 µM (inconclusive)
EC50 [3]: 7.92 µM (active)

COc1ccc(NC(=O)N2CCc3ccccc32)cc1
EC50 [4]: 1.08 µM (active)
EC50 [5]: > 50 µM (active)
EC50 [6]: 3.53 µM (active)

CC1(C)CCCC2=C1CC1C(=O)N(c3ccccc3)C(=O)C1C2 (stereo not drawn)
EC50 (Mucolipin-3): > 29.9 µM (not active)
EC50 (Ion channel NompC): > 29.9 µM (not active)

Cc1cccc2cc(C(c3nnnn3C(C)(C)C)N3CCN(C(=O)c4ccco4)CC3)c(=O)[nH]c12 (stereo not drawn)
IC50 [1]: 17.3 µM (active)

CCCCn1c(C)cc(C)c(S(=O)(=O)c2ccccc2C)c1=O
EC50 [7]: > 195 µM (not active)
EC50 (Mucolipin-3): 3.78 µM (active)
EC50 (Ion channel NompC): > 29.9 µM (not active)

CCOc1ccc(NC2=NC(=O)S/C2=C\c2ccc(Cl)cc2)cc1
IC50 [8]: > 50 µM (not active)
IC50 [9]: 2.79 µM (active)

Cc1ccc(C)c(C(=O)C2=C(O)C(=O)N(CCN3CCOCC3)C2c2ccco2)c1 (stereo not drawn)
IC50 (Estrogen receptor beta [10]): 32.1 µM (not active)
IC50 (Estrogen receptor beta [11]): 18.4 µM (active)
AC50 (Cytochrome P450 2C19): inconclusive
AC50 (Cytochrome P450 3A4): 39.8 µM (inconclusive)
AC50 (Cytochrome P450 2C9): 0.1 µM (inconclusive)

O=[N+]([O-])c1cc(-c2ccc(/C=N/c3nc4ccccn4c3-c3ccco3)o2)ccc1Cl
CC50 [2]: 18.8 µM (active)
IC50 (Bcl-2-like protein 10): 96.8 µM (inactive)

COc1cccc(CN2CC(=O)C(c3nc(-c4ccc(Cl)cc4)cs3)=C2N)c1
IC50 [9]: 5.59 µM (active)

O=C(Oc1ccccc1Cl)c1ccccc1P(=O)(O)O
IC50 [9]: 4.49 µM (active)

COc1ccc(CCn2c(=N)c(C(=O)NCC3CCCO3)cc3c(=O)n4ccccc4nc32)cc1 (stereo not drawn)
EC50 [4]: 15.7 µM (active)
EC50 [5]: > 50 µM (active)
EC50 [6]: > 112 µM (not active)

C=CCSc1nc2c(cnn2-c2ccccc2)c(=O)n1N
EC50 [12]: 0.235 µM (inconclusive)
EC50 [13]: 0.375 µM (inconclusive)
EC50 (cells): 0.914 µM (inconclusive)

O=C(NCc1ccco1)c1cc2n(n1)C(C(F)(F)F)CC(c1ccc(Br)cc1)N2 (stereo not drawn)
IC50 [1]: > 50 µM (not active)

CC1=C(C#N)CCC(=O)N1Cc1c(C)cc(C)cc1C
EC50 [5]: > 50 µM (active)

CC(C)(C)n1nnnc1C(c1ccc(Cl)cc1)N1CCSCC1 (stereo not drawn)
EC50 [4]: > 112 µM (not active)
EC50 [3]: 0.85 µM (active)
EC50 [6]: > 112 µM (not active)

Cc1ccc(Cn2cc(C=O)c3ccccc32)cc1
EC50 [14]: 4.41 µM (active)
EC50 [12]: 1.29 µM (active)
EC50 [13]: 1.22 µM (active)
EC50 (cells): 0.782 µM (active)
EC50 [15]: < 0.1 µM (active)
